Measured values published in patent US20050124607A1, “5-Substituted quinazolinone compounds useful as alpha 1A/B adrenergic receptor antagonists” (priority 2003, published 2005).

Experiments:
[1] = target: T1, alpha1A adrenoceptor (Homo sapiens, UniProt P35348); experiment: [3H]prazosin binding (alpha1-adrenoceptor) assay, alpha 1A; details: transfected CHO-K1 cell membranes, read-out: pKi alpha 1A (converted)
T1 construct: expressed in transfected cells; host or cells: CHO-K1
T1 sequence (P35348 1-466): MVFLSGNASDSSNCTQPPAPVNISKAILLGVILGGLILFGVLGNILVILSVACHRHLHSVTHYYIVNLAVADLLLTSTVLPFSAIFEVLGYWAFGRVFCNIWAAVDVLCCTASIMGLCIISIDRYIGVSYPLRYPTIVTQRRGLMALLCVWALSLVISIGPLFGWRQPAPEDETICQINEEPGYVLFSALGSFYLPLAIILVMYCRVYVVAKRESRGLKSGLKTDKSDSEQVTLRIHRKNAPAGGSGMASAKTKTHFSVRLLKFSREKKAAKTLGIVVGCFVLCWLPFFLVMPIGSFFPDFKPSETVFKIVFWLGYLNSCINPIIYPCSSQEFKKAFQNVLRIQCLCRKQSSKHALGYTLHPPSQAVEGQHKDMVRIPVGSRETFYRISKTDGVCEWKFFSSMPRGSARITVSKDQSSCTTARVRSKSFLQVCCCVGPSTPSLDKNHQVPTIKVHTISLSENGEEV
Method: (§1) Alpha1 A, alpha1B, and alpha1D adrenoceptor transfected CHO-K1 cells, prepared using the methods described by Chang et al., FEBS Lett. 1998, 422:279-283, were grown to confluence in T-162 tissue culture flasks in Ham's F-12 culture medium supplemented with 10% fetal bovine serum, geneticin (150 μg/mL) and streptomycin/penicillin (30 μg/mL/30 μg/mL) at 37° C. in 7% CO2. Cells were harvested by incubating with phosphate-buffered saline (PBS) containing 30 μM EDTA for 5-10 min at 37° C. Cells were pelleted by centrifuging at 500×g for 5 min, and the pelleted cells were homogenized (Polytron homogenizer) in 10 vols (w/v) of 50 mM Tris, 1 mM EDTA, (homogenisation buffer, pH 7.4 at 4° C.). The homogenate was centrifuged at 45,000×g for 20 min. The pellet was resuspended in the homogenizing buffer and rehomogenized. The resulting homogenate was centrifuged at 45,000×g for 20 min. The pellet was resuspended in 50 mM Tris buffer (pH 7.4 at 4° C.), aliquoted, frozen, and stored at −80° C. for further use.
(§2) The membranes were thawed at rt and diluted in assay buffer (50 mM Tris buffer at […]) at 37° C. and homogenized using the Polytron tissue disrupter. The membranes were incubated with the radioligand ([^3H]prazosin, NEN, 0.1-0.5 nM) and test compound at 37° C. for 30 min. The membranes were then filtered over polyethyleneimine-treated GF/B unifilter plates using a Packard Filtermate Harvester and washed with ice-cold 50 mM Tris-HCl, 1 mM EDTA buffer (3×3 sec. washes). Scintillation cocktail was added to the filter plates and bound radioligand determined by liquid scintillation spectrophotometry.
(§3) For each experiment, total binding (in the absence of any test or reference compounds) and non-specific binding (10 μM phentolamine) were determined. For each sample tested, the concentration producing 50% inhibition of binding (IC50) and Hill Slope (nH) was determined using iterative non-linear curve fitting techniques with Kaleidagraph (Synergy Software) or other appropriate software. If the radioligand KD was known, the inhibition dissociation constant (KI) of each ligand was determined according to the method of Cheng and Prusoff (Cheng, Y-C. and Prusoff, W. H., Biochem.Pharmacol., 1973, 22, 3099-3108).

[2] = target: T2, alpha1B adrenoceptor (Homo sapiens, UniProt P35368); experiment: [3H]prazosin binding (alpha1-adrenoceptor) assay, alpha 1B; details: transfected CHO-K1 cell membranes, read-out: pKi alpha 1B (converted)
T2 construct: expressed in transfected cells; host or cells: CHO-K1
T2 sequence (P35368 1-520): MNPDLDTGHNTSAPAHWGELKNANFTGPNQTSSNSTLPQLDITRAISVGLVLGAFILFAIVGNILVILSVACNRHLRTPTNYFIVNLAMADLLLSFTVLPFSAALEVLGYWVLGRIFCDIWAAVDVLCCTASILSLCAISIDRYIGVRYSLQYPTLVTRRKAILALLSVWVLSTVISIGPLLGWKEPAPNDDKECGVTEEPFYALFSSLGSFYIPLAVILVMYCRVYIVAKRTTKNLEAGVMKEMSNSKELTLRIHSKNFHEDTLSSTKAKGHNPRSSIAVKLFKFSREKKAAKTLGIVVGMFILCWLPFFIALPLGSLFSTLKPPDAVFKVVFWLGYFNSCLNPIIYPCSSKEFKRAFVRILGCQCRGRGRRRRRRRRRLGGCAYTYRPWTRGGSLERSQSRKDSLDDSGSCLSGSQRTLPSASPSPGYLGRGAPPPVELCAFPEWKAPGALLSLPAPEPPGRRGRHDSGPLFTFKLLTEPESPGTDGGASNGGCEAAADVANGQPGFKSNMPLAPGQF
Method: as §1, §2, §3

[3] = target: T3, alpha1D adrenoceptor (Homo sapiens, UniProt P25100); experiment: [3H]prazosin binding (alpha1-adrenoceptor) assay, alpha 1D; details: transfected CHO-K1 cell membranes, read-out: pKi alpha 1D (converted)
T3 construct: expressed in transfected cells; host or cells: CHO-K1
T3 sequence (P25100 1-572): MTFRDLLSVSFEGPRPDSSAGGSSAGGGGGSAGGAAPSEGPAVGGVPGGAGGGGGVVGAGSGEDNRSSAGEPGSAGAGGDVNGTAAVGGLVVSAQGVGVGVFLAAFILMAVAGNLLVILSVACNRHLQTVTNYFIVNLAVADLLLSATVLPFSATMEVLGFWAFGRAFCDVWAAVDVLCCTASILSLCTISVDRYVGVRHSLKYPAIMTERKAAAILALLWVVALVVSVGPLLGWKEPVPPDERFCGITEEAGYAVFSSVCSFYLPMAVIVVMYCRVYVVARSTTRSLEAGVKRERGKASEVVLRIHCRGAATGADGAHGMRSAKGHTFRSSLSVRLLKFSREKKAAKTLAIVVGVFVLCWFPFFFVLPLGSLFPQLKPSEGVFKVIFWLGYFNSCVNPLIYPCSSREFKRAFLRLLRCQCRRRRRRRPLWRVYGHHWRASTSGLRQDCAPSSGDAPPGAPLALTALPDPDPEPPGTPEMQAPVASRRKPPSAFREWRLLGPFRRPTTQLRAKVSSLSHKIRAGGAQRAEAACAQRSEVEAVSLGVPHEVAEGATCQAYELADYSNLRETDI
Method: as §1, §2, §3

| SMILES | Ki [1] | Ki [2] | Ki [3] | melting point |
| --- | --- | --- | --- | --- |
| COc1cc2[nH]c(N3CCC4(CC3)CN(c3ccc(F)cc3)C(=O)CO4)nc(=O)c2c(OC)c1OC | 6.17 nM | 13.8 nM | 257 nM | – |
| COc1cc2[nH]c(N3CCN(c4ncc[nH]4)CC3)nc(=O)c2c(OC)c1OC [2-[4-(1H-Imidazol-2-yl)-piperazin-1-yl]-5,6,7-tri-methoxy-1H-quinazolin-4-one] | 1.12 nM | 2.51 nM | 457 nM | – |
| COc1cc2[nH]c(N3CCC(CCn4ccnc4)CC3)nc(=O)c2c(C)c1OC [2-[4-(2-Imidazol-1-yl-ethyl)-piperidin-1-yl]-6,7-di-methoxy-5-methyl-1H-quinazolin-4-one] | 5.25 nM | 2.19 nM | 87.1 nM | – |
| COc1cc2[nH]c(N3CCc4c(cccc4NC(=N)c4ccco4)C3)nc(=O)c2c(OC)c1OC [Example 117, N-[2-(5,6,7-Trimethoxy-4-oxo-1,4-di-hydro-quina-zolin-2-yl)-1,2,3,4-tetra-hydro-isoquinolin-5-yl]-furan-2-car-boxamidine] | – | – | – | 223.9 to 225.9 °C |
| COc1cc2c(cc1OC)CN(c1nc(=O)c3c(-c4ccc(F)cc4)c(OC)c(OC)cc3[nH]1)CC2 [Example 120, 2-(6,7-Dimethoxy-3,4-di-hydro-1H-isoquino-lin-2-yl)-5-(4-fluoro-phe-nyl)-6,7-dimethoxy-1H-quina-zolin-4-one] | – | – | – | 220 to 225 °C |
| COc1cc2[nH]c(N3CCc4c(cccc4/N=C(\C)N(C)C)C3)nc(=O)c2c(OC)c1OC [Example 122, N,N-Dimethyl-N′-[2-(5,6,7-tri-methoxy-4-oxo-1,4-di-hydro-quinazolin-2-yl)-1,2,3,4-tetra-hydro-iso-quinolin-5-yl]-acetamidine] | – | – | – | 223.5 to 226.6 °C |
| COc1cc2[nH]c(N3CCc4c(cccc4NC(=N)C4CCC4)C3)nc(=O)c2c(C)c1OC [Example 123, N-[2-(6,7-Dimethoxy-5-meth-yl-4-oxo-1,4-di-hydro-quinazolin-2-yl)-1,2,3,4-tetra-hydro-isoquinolin-5-yl]-cyclo-butanecarboxamidine] | – | – | – | 252.1 to 256.1 °C |
| COc1cc2[nH]c(N3CCc4c(cccc4NC(=N)c4ccco4)C3)nc(=O)c2c(C)c1OC [Example 124, N-[2-(6,7-Dimethoxy-5-meth-yl-4-oxo-1,4-di-hydro-quinazolin-2-yl)-1,2,3,4-tetra-hydro-iso-quinolin-5-yl]-furan-2-carboxamidine] | – | – | – | 279 to 282 °C |
| CCCC(=N)Nc1cccc2c1CCN(c1nc(=O)c3c(C)c(OC)c(OC)cc3[nH]1)C2 [Example 125, N-[2-(6,7-Dimethoxy-5-meth-yl-4-oxo-1,4-di-hydro-quinazolin-2-yl)-1,2,3,4-tetra-hydro-isoquinolin-5-yl]-butyramidine] | – | – | – | 254.3 to 257.1 °C |
| COc1cc2[nH]c(N3CCc4ccc(/N=C(\C)N(C)C)cc4C3)nc(=O)c2c(C)c1OC [Example 132, N′-[2-(6,7-Dimethoxy-5-meth-yl-4-oxo-1,4-di-hydro-quinazolin-2-yl)-1,2,3,4-tetra-hydro-isoquinolin-7-yl]-N,N-di-methyl-acetamidine] | – | – | – | 176 to 177.1 °C |
| COc1cc2c(cc1OC)CN(c1nc(=O)c3c(F)c(OC)c(OC)cc3[nH]1)CC2 [Example 133, 2-(6,7-Dimethoxy-3,4-di-hydro-1H-isoquino-lin-2-yl)-5-fluoro-6,7-di-methoxy-1H-quina-zolin-4-one] | – | – | – | 260.8 to 269 °C |
| COc1cc2c(cc1OC)CN(c1nc(=O)c3c(Cl)c(OC)c(OC)cc3[nH]1)CC2 [Example 134, 5-Chloro-2-(6,7-di-methoxy-3,4-dihydro-1H-iso-quinolin-2-yl)-6,7-di-methoxy-1H-quinazolin-4-one] | – | – | – | 255.4 to 259.9 °C |
| COc1cc2[nH]c(N3CCc4c(ncnc4N4CCOCC4)C3)nc(=O)c2c(C)c1OC [Example 136, 6,7-Dimethoxy-5-meth-yl-2-(4-morpholin-4-yl-5,8-di-hydro-6H-py-rido[3,4-d]pyrimidin-7-yl)-1H-quina-zolin-4-one] | – | – | – | > 300 °C |
| COc1cc2[nH]c(N3CCCC3c3cccc(N4CCN=C4C)c3)nc(=O)c2c(OC)c1OC (centres unmarked) [Example 138, 5,6,7-Trimethoxy-2-{2-[3-(2-meth-yl-4,5-di-hydro-imidazol-1-yl)-phe-nyl]-pyrrolidin-1-yl}-1H-quina-zolin-4-one] | – | – | – | 205.1 to 209.1 °C |
| COc1cc2[nH]c(N3CCCC3c3cccc(NCCNC(C)=O)c3)nc(=O)c2c(OC)c1OC (centres unmarked) [Example 139, N-(2-{3-[1-(5,6,7-Tri-methoxy-4-oxo-1,4-di-hydro-quinazolin-2-yl)-pyr-rolidin-2-yl]-phenyl-amino}-ethyl)-acetamide] | – | – | – | 188.6 to 191 °C |
| COc1cc2[nH]c(N3CCC(c4cccc(/N=C(\C)N(C)C)c4)C3)nc(=O)c2c(C)c1OC (centres unmarked) [Example 142, N′-{3-[1-(6,7-Di-methoxy-5-methyl-4-oxo-1,4-di-hydro-quina-zolin-2-yl)-pyr-rolidin-3-yl]-phenyl}-N,N-di-methyl-acetamidine] | – | – | – | 152.2 to 154.4 °C |
| COc1cc2[nH]c(N3CCc4c(cccc4/N=C(/C)N(C)C)C3)nc(=O)c2c(C)c1OC [Example F-1, N′-[2-(6,7-Dimethoxy-5-methyl-4-oxo-1,4-dihydro-quinazolin-2-yl)-1,2,3,4-tetrahydro-isoquinolin-5-yl]-N,N-dimethyl-acetamidine] | – | – | – | 270.9 to 273.5 °C |
| CNCC(=O)N(C)Cc1cccc2c1CCN(c1nc(=O)c3c(C)c(OC)c(OC)cc3[nH]1)C2 [N-[2-(6,7-Dimethoxy-5-methyl-4-oxo-1,4-dihydro-quinazolin-2-yl)-1,2,3,4-tetrahydro-isoquinolin-5-ylmethyl]-N-methyl-2-methylamino-acetamide] | 1.58 nM | 1.58 nM | 79.4 nM | – |
